Data on seven molecules can be found in patent publication US20240336654A1, “ANTIMICROBIAL PEPTIDOMIMETICS” (SPEXIS AG, priority 2021, published 2024).

Type in all cases: cell-based
Data set [1] has as its system Escherichia coli ATCC 25922. The note with it: ATCC 25922. In a few lines: (§1)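 The MIC is the lowest peptide concentration, in μg/mL, with no visible growth after 18-20 h incubation at 35 °C. Serial two-fold peptide dilutions in water with 0.002% P-80 final were added to bacteria in cation-adjusted MHII broth, about 5×10^5 CFU/mL, following modified CLSI microdilution.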

For data set [2], the system named is Escherichia coli MCR-1 Af 45. The note with it: MCR-1 Af 45. In a few lines:
as §1

For data set [3], the system named is Klebsiella pneumoniae SSI3010. The note with it: SSI3010. In a few lines:
as §1

Data set [4] concerns human red blood cells (hRBC). To be noted: red cells of human, 1 h, 200 μg/mL. In a few lines:
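Percent hemolysis derived from OD540 of supernatants relative to full lysis by 2.5% Triton X-100 (PBS baseline). Washed fresh human erythrocytes (20% v/v) were exposed to 200 μg/mL peptide for 1 h at 37 °C with shaking.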

Structures are written as SMILES. Where a SMILES comes first, the peptide text is derived from it. Bridges are numbered along the chain shown (N, C = ends). [ ]: non-standard residue; d: D form. The star is where a group is joined. Val(Nα-amidino) = CC(C)[C@H](NC(=N)N)C(=O)*; dDab(iPr) = CC(C)NCC[C@@H](N)C(=O)O; Hyp = O=C(O)[C@@H]1C[C@@H](O)CN1; Cit = NC(=O)NCCC[C@H](N)C(=O)O; Pen = CC(C)(S)[C@H](N)C(=O)O; dDab = NCC[C@@H](N)C(=O)O; Dab = NCC[C@H](N)C(=O)O A value given as a limit tells only on which side of the number the result lay.

Turning to `CC[C@H](C)[C@H](NC(=O)[C@@H]1C[C@@H](O)CN1C(=O)[C@@H](N)C(C)C)C(=O)N[C@@H]1C(=O)N[C@@H](Cc2ccc(O)cc2)C(=O)N[C@@H](CO)C(=O)N[C@@H](CC(N)=O)C(=O)N[C@@H](CCCNC(=N)N)C(=O)N[C@@H](CCN)C(=O)N[C@@H]([C@@H](C)O)C(=O)N[C@H](CCN)C(=O)N[C@@H](CCCCN)C(=O)N[C@@H](CCN)C(=O)N[C@@H](CC(N)=O)C(=O)N[C@H](C(=O)N[C@@H](Cc2ccc(O)cc2)C(=O)O)CSSC1(C)C` [Example 61, Val-Hyp-Ile-Pen-Tyr-Ser-Asn-Arg-Dab-Thr-^DDab-Lys-Dab-Asn-Cys-Tyr] (H-V[Hyp]I[Pen]YSNR[Dab]T[dDab]K[Dab]NCY-OH; disulfide 4-15), the “Escherichia coli ATCC 25922 MIC” value in data set [1] was 0.25 µg/mL. Moreover, the “Escherichia coli MCR-1 Af45 MIC” value in data set [2] is 0.25 µg/mL. In data set [3], the “Klebsiella pneumoniae SSI3010 MIC” value stood at 0.5 µg/mL. Moreover, the “Hemolysis at 0.2 g/L” value in data set [4] is recorded as less than 1%.
`CC[C@H](C)[C@H](NC(=O)[C@@H]1C[C@@H](O)CN1C(=O)[C@@H](NC(=N)N)C(C)C)C(=O)N[C@@H]1C(=O)N[C@@H](Cc2ccc(O)cc2)C(=O)N[C@@H](CO)C(=O)N[C@@H](CC(N)=O)C(=O)N[C@@H](CCCNC(=N)N)C(=O)N[C@@H](CCN)C(=O)N[C@@H]([C@@H](C)O)C(=O)N[C@H](CCNC(C)C)C(=O)N[C@@H](CCCCN)C(=O)N[C@@H](CCN)C(=O)N[C@@H](CCN)C(=O)N[C@H](C(=O)N[C@@H](Cc2ccc(O)cc2)C(=O)O)CSSC1(C)C` [Example 71, Gua-Val-Hyp-Ile-Pen-Tyr-Ser-Asn-Arg-Dab-Thr-^DDab(iPr)-Lys-Dab-Dab-Cys-Tyr] ({Val(Nα-amidino)}-[Hyp]I[Pen]YSNR[Dab]T[dDab(iPr)]K[Dab][Dab]CY-OH; disulfide 3-14): the “Escherichia coli ATCC 25922 MIC” value in data set [1] was 0.0625 µg/mL. Moreover, the “Escherichia coli MCR-1 Af45 MIC” value in data set [2] was 0.0625 µg/mL. Besides, in data set [3], the “Klebsiella pneumoniae SSI3010 MIC” value was 0.125 µg/mL. Further, the “Hemolysis at 0.2 g/L” value in data set [4] is on record as less than 1%.
As for `CC[C@H](C)[C@H](NC(=O)[C@@H]1C[C@@H](O)CN1C(=O)[C@@H](NC(=N)N)C(C)C)C(=O)N[C@@H]1C(=O)N[C@@H](Cc2ccc(O)cc2)C(=O)N[C@@H](CO)C(=O)N[C@@H](CC(N)=O)C(=O)N[C@@H](CCCNC(=N)N)C(=O)N[C@@H](CCN)C(=O)N[C@@H]([C@@H](C)O)C(=O)N[C@H](CCN)C(=O)N[C@@H]([C@@H](C)O)C(=O)N[C@@H](CCN)C(=O)N[C@@H](CCN)C(=O)N[C@H](C(=O)N[C@@H](Cc2ccc(O)cc2)C(=O)O)CSSC1(C)C` [Example 90, Gua-Val-Hyp-Ile-Pen-Tyr-Ser-Asn-Arg-Dab-Thr-^DDab-Thr-Dab-Dab-Cys-Tyr] ({Val(Nα-amidino)}-[Hyp]I[Pen]YSNR[Dab]T[dDab]T[Dab][Dab]CY-OH; disulfide 3-14), the “Escherichia coli ATCC 25922 MIC” value in data set [1] was 0.25 µg/mL. Also, the “Escherichia coli MCR-1 Af45 MIC” value in data set [2] turned out to be 0.125 µg/mL. The “Klebsiella pneumoniae SSI3010 MIC” value in data set [3] is 0.25 µg/mL. In addition, the “Hemolysis at 0.2 g/L” value in data set [4] is less than 1%.
As to `CC[C@H](C)[C@H](NC(=O)[C@@H]1C[C@@H](O)CN1C(=O)[C@@H](N)C(C)C)C(=O)N[C@@H]1C(=O)N[C@@H](Cc2ccc(O)cc2)C(=O)N[C@@H](CO)C(=O)N[C@@H](CC(N)=O)C(=O)N[C@@H](CCCNC(=N)N)C(=O)N[C@@H](CCN)C(=O)N[C@@H]([C@@H](C)O)C(=O)N[C@H](CCN)C(=O)N[C@@H](CCCNC(N)=O)C(=O)N[C@@H](CCN)C(=O)N[C@@H](CCN)C(=O)N[C@H](C(=O)N[C@@H](Cc2ccc(O)cc2)C(=O)O)CSSC1(C)C` [Example 40, Val-Hyp-Ile-Pen-Tyr-Ser-Asn-Arg-Dab-Thr-^DDab-Cit-Dab-Dab-Cys-Tyr] (H-V[Hyp]I[Pen]YSNR[Dab]T[dDab][Cit][Dab][Dab]CY-OH; disulfide 4-15), the “Escherichia coli ATCC 25922 MIC” value in data set [1] was determined as 0.25 µg/mL. In addition, the “Escherichia coli MCR-1 Af45 MIC” value in data set [2] turned out to be 0.125 µg/mL. The “Klebsiella pneumoniae SSI3010 MIC” value in data set [3] came to 0.5 µg/mL. In addition, the “Hemolysis at 0.2 g/L” value in data set [4] is recorded as less than 1%.
In the case of `CC[C@H](C)[C@H](NC(=O)[C@@H]1C[C@@H](O)CN1C(=O)[C@@H](N)C(C)C)C(=O)N[C@@H]1C(=O)N[C@@H](Cc2ccc(O)cc2)C(=O)N[C@@H](CCN)C(=O)N[C@@H](CC(N)=O)C(=O)N[C@@H](CCCNC(=N)N)C(=O)N[C@@H](CCN)C(=O)N[C@@H]([C@@H](C)O)C(=O)N[C@H](CCN)C(=O)N[C@@H](CCCCN)C(=O)N[C@@H](CO)C(=O)N[C@@H](CCN)C(=O)N[C@H](C(=O)N[C@@H](Cc2ccc(O)cc2)C(=O)O)CSSC1(C)C` [Example 45, Val-Hyp-Ile-Pen-Tyr-Dab-Asn-Arg-Dab-Thr-^DDab-Lys-Ser-Dab-Cys-Tyr] (H-V[Hyp]I[Pen]Y[Dab]NR[Dab]T[dDab]KS[Dab]CY-OH; disulfide 4-15), the “Escherichia coli ATCC 25922 MIC” value in data set [1] was found to be 0.125 µg/mL. The “Escherichia coli MCR-1 Af45 MIC” value in data set [2] was 0.125 µg/mL. In addition, the “Klebsiella pneumoniae SSI3010 MIC” value in data set [3] was 0.0625 µg/mL. In data set [4], the “Hemolysis at 0.2 g/L” value is less than 1%.
As for `CC[C@H](C)[C@H](NC(=O)[C@@H]1C[C@@H](O)CN1C(=O)[C@@H](N)C(C)C)C(=O)N[C@@H]1C(=O)N[C@@H](Cc2ccc(O)cc2)C(=O)N[C@@H](CC(N)=O)C(=O)N[C@@H](CC(N)=O)C(=O)N[C@@H](CCCNC(=N)N)C(=O)N[C@@H](CCN)C(=O)N[C@@H]([C@@H](C)O)C(=O)N[C@H](CCN)C(=O)N[C@@H](CCCCN)C(=O)N[C@@H](CCN)C(=O)N[C@@H](CCN)C(=O)N[C@H](C(=O)N[C@@H](Cc2ccc(O)cc2)C(=O)O)CSSC1(C)C` [Example 18, Val-Hyp-Ile-Pen-Tyr-Asn-Asn-Arg-Dab-Thr-^DDab-Lys-Dab-Dab-Cys-Tyr] (H-V[Hyp]I[Pen]YNNR[Dab]T[dDab]K[Dab][Dab]CY-OH; disulfide 4-15), the “Escherichia coli ATCC 25922 MIC” value in data set [1] turned out to be 0.25 µg/mL. For the same molecule, the “Escherichia coli MCR-1 Af45 MIC” value in data set [2] is 0.125 µg/mL. Besides, the “Klebsiella pneumoniae SSI3010 MIC” value in data set [3] stood at 0.25 µg/mL. Also, the “Hemolysis at 0.2 g/L” value in data set [4] is reported as less than 1%.
Take `CC[C@H](C)[C@H](NC(=O)[C@@H]1C[C@@H](O)CN1C(=O)[C@@H](NC(=N)N)C(C)C)C(=O)N[C@H]1CCC(=O)NCC[C@@H](C(=O)N[C@@H](Cc2ccc(O)cc2)C(=O)O)NC(=O)[C@H](CCN)NC(=O)[C@H](CCN)NC(=O)[C@H](CCCCN)NC(=O)[C@@H](CCN)NC(=O)[C@H]([C@@H](C)O)NC(=O)[C@H](CCN)NC(=O)[C@H](CCCNC(=N)N)NC(=O)[C@H](CC(N)=O)NC(=O)[C@H](CO)NC(=O)[C@H](Cc2ccc(O)cc2)NC1=O` [Example 87, Gua-Val-Hyp-Ile-Glu-Tyr-Ser-Asn-Arg-Dab-Thr-^DDab-Lys-Dab-Dab-Dab-Tyr] ({Val(Nα-amidino)}-[Hyp]IEYSNR[Dab]T[dDab]K[Dab][Dab][Dab]Y-OH; lactam 3-14): the “Escherichia coli ATCC 25922 MIC” value in data set [1] worked out at 0.125 µg/mL. Besides, in data set [2], the “Escherichia coli MCR-1 Af45 MIC” value came to 0.0625 µg/mL. The “Klebsiella pneumoniae SSI3010 MIC” value in data set [3] came to 0.125 µg/mL. The “Hemolysis at 0.2 g/L” value in data set [4] is less than 1%.
